Laboratory results: patent US20240158412A1 (Faxian Therapeutics, LLC, priority 2021, published 2024)

Each molecule was assayed against USP7 (Homo sapiens, UniProt Q93009) (assay: biochemical).
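Also: fluorescence intensity readout of USP7 enzymatic activity, reaction incubated 90 min at room temperature.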
Description: Example A. Biochemical Assay of USP7 Inhibitor Potency (IC50)
Fluorescence intensity assay of USP7 activity in the presence USP7 inhibitors. Recombinant USP7 protein (catalogue number E-519) and the fluorescence substrate ubiquitin-rhodamine 110 (Rh110) (catalogue number U-555) were purchased from Boston Biochem (840 Memorial Drive, Cambridge, MA 02139). The reaction was carried out in buffer 20 mM HEPES, pH 7.3, 150 mM NaCl, 1 mM TCEP, 125 μg/mL BSA at room temperature in a black 384-well Microplate (Greiner, catalog number 781076).
Test compounds were dissolved in DMSO to make 50 mM stock solution. […] In wells of a black 384-well Microplate, 15 μl of 100 pM of USP7 enzyme was added to each well with pre-diluted compounds and incubated at room temperature for 30 minutes, followed by addition of 10 μl of ubiquitin-rhodamine 110 (Rh110) substrate to reach 160 nM final concentration. The reaction mixtures were incubated for additional 90 minutes at room temperature. The fluorescence signal of the digested substrate was measured on an EnVision microplate reader (PerkinElmer,), using excitation at 485 nm and emission at 535 nm. The IC50 values were calculated using XLfit software.

Chain of USP7 (Q93009 whole entry): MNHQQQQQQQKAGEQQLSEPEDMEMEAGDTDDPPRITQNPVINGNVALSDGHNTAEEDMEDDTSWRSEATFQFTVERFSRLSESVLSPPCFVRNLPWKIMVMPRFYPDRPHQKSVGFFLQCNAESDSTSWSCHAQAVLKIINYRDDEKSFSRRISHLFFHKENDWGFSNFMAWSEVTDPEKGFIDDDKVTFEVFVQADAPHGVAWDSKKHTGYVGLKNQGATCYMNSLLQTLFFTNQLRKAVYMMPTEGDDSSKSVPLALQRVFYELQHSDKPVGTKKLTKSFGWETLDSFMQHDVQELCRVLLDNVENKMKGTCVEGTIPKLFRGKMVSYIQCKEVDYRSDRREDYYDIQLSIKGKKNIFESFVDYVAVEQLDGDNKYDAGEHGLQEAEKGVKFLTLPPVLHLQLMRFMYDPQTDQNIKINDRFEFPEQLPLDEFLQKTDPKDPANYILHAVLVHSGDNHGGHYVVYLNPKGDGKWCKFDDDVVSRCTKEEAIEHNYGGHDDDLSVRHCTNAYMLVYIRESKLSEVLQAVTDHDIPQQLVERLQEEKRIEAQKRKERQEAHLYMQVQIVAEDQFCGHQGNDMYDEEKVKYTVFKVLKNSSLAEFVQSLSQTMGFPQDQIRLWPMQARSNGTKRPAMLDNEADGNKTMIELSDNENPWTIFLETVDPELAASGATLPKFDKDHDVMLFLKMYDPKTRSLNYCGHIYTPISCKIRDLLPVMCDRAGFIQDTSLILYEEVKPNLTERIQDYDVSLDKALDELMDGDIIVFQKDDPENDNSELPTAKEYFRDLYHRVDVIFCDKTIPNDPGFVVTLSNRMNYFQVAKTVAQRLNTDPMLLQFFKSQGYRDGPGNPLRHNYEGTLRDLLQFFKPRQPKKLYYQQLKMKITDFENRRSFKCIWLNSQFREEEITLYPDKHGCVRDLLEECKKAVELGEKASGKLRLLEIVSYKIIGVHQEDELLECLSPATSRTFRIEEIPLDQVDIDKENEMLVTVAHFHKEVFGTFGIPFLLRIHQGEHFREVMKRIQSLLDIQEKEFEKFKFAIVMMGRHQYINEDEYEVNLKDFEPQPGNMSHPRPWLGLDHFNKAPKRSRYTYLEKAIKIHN

Compound	IC50 [nM]
C[C@]1(CO)C[C@H](N2CCCc3cc(Cl)cc(-c4cc[n+]([O-])c5cc(CN6C(=O)CCC6=O)sc45)c32)CN1 [Example 208, 7-(6-chloro-1-((3S,5R)-5-(hydroxymethyl)-5-methylpyrrolidin-3-yl)-1,2,3,4-tetrahydroquinolin-8-yl)-2-((2,5-dioxopyrrolidin-1-yl)methyl)thieno[3,2-b]pyridine 4-oxide]	< 10
C[C@]1(CO)C[C@H](N2CCCc3cc(C#N)cc(-c4ccnc5cc(CN6C(=O)CCC6=O)sc45)c32)CN1 [Example 209, 8-(2-((2,5-dioxopyrrolidin-1-yl)methyl)thieno[3,2-b]pyridin-7-yl)-1-((3S,5R)-5-(hydroxymethyl)-5-methylpyrrolidin-3-yl)-1,2,3,4-tetrahydroquinoline-6-carbonitrile]	< 10
C[C@]1(CO)C[C@H](N2CCCc3cc(Cl)cc(-c4ccnc5c(F)c(CN6C(=O)CCC6=O)sc45)c32)CN1 [Example 210, 1-[[7-[6-chloro-1-[(3S,5R)-5-(hydroxymethyl)-5-methyl-pyrrolidin-3-yl]-3,4-dihydro-2H-quinolin-8-yl]-3-fluoro-thieno[3,2-b]pyridin-2-yl]methyl]pyrrolidine-2,5-dione]	< 10
O=C1CCC(=O)N1Cc1cc2nccc(-c3cc(Cl)cc4c3N(C3CNC5(CC(F)C5)C3)CCC4)c2s1 (stereo not drawn) [Example 211, 1-((7-(6-chloro-1-(2-fluoro-5-azaspiro[3.4]octan-7-yl)-1,2,3,4-tetrahydroquinolin-8-yl)thieno[3,2-b]pyridin-2-yl)methyl)pyrrolidine-2,5-dione]	< 10
O=C1C2CC2C(=O)N1Cc1cc2nccc(-c3cc(Cl)cc4c3N([C@@H]3CN[C@@H](CO)C3)CCO4)c2s1 (stereo partly drawn) [Example 214, 3-((7-(7-chloro-4-((3S,5R)-5-(hydroxymethyl)pyrrolidin-3-yl)-3,4-dihydro-2H-benzo[b][1,4]oxazin-5-yl)thieno[3,2-b]pyridin-2-yl)methyl)-3-azabicyclo[3.1.0]hexane-2,4-dione]	< 10
N#Cc1cc2c(c(-c3ccnc4cc(CN5C(=O)C6CC6C5=O)sc34)c1)N([C@@H]1CN[C@@H](CO)C1)CCO2 (stereo partly drawn) [Example 215, 5-(2-((2,4-dioxo-3-azabicyclo[3.1.0]hexan-3-yl)methyl)thieno[3,2-b]pyridin-7-yl)-4-((3S,5R)-5-(hydroxymethyl)pyrrolidin-3-yl)-3,4-dihydro-2H-benzo[b][1,4]oxazine-7-carbonitrile]	< 10
Cc1cnn(Cc2cc3nccc(-c4cc(Cl)cc5c4N([C@@H]4CN[C@@H](CO)C4)CCO5)c3s2)c(=O)c1 [Example 216, 2-((7-(7-chloro-4-((3S,5R)-5-(hydroxymethyl)pyrrolidin-3-yl)-3,4-dihydro-2H-benzo[b][1,4]oxazin-5-yl)thieno[3,2-b]pyridin-2-yl)methyl)-5-methylpyridazin-3(2H)-one]	< 10
CC(C)(C)c1cnn(Cc2cc3nccc(-c4cc(C#N)cc5c4N([C@@H]4CN[C@@H](CO)C4)CCO5)c3s2)c(=O)c1 [Example 217, 5-(2-((4-(tert-butyl)-6-oxopyridazin-1(6H)-yl)methyl)thieno[3,2-b]pyridin-7-yl)-4-((3S,5R)-5-(hydroxymethyl)pyrrolidin-3-yl)-3,4-dihydro-2H-benzo[b][1,4]oxazine-7-carbonitrile]	< 10
CC1(C)C2C(=O)N(Cc3cc4nccc(-c5cc(C#N)cc6c5N([C@@H]5CN[C@@](C)(CO)C5)CCO6)c4s3)C(=O)C21 (stereo partly drawn) [Example 220, 5-(2-((6,6-dimethyl-2,4-dioxo-3-azabicyclo[3.1.0]hexan-3-yl)methyl)thieno[3,2-b]pyridin-7-yl)-4-((3S,5R)-5-(hydroxymethyl)-5-methylpyrrolidin-3-yl)-3,4-dihydro-2H-benzo[b][1,4]oxazine-7-carbonitrile]	< 10
